According to patent publication US20210255195A1, “HIGH PRECISION SPECTRAL FRET ASSAYS” (Regents of the University of Minnesota, priority 2017, published 2021):

Assays:
[1] = tested on: endoplasmic reticulum calcium (D1ER sensor); test: D1ER cameleon calcium FRET sensor in HEK293 cells (ER calcium depletion), spectral mode; format: cell-based, human; details: for T50 (rate of calcium depletion): saturating drug concentrations, Hill fit of time course
Experimental: Investigation of a CFP and YFP FRET pair was evaluated with the well-known cameleon calcium sensor, in which the calmodulin-binding (M13) domain of myosin light chain kinase (MLCK) and calcium-binding domain of calmodulin are fused together, and located between two fluorescence proteins (eCFP/mCitrine). These calcium sensors have allowed cellular [Ca^2+] to be monitored more directly and reliably than using calcium-sensitive dyes. The endoplasmic reticulum-targeted cameleon sensor (D1ER) was selected because it is known to be sensitive to the SERCA inhibitors thapsigargin, CPA, and BHQ. Instead of detecting direct ligand binding, as in the 2CS studies reported above, the D1ER sensor can be used to monitor changes in ER calcium level. Upon SERCA inhibition, calcium is no longer pumped into the ER, leading to calcium depletion through various mechanisms including IP3-gated receptors and ryanodine receptors. D1ER senses these changes as calcium binding leads to a conformational rearrangement of the biosensors, increasing FRET between CFP and YFP. Therefore, calcium depletion due to SERCA inhibition is detected as a decrease in FRET.
A HEK293 stable clone with constitutive expression of the D1ER cameleon calcium sensor was generated using G418 antibiotic selection. […] Cells were harvested and dispensed into 384-well plates containing the same concentrations of thapsigargin, CPA, and BHQ, as previously evaluated with 2CS (FIG. 9). D1ER FRET was monitored only in spectral mode, because the CFP donor cannot be excited effectively by the 473 nm laser used in lifetime mode. ER calcium was monitored by repeatedly scanning the 384 well plate at three-minute intervals over a 120-minute period. […]
After resuspension and dilution in PBS, the cells were constantly and gently stirred using a magnetic stir bar at room temperature, keeping the cells in suspension and evenly distributed to avoid clumping. […] Concentration-response curves (CRC) of the FRET hits were assessed at multiple time points by repeatedly scanning the 384-well plates. […] The D1ER calcium sensor monitored changes in endoplasmic reticulum [Ca^2+] […] The methods and protocols for the D1ER cells were identical to those for 2CS, with the exception that they were evaluated only in spectral mode, and the 384-well plates containing compound CRCs were scanned every three minutes for two-hours.
SERCA malfunction can result in decreased ATPase activity and/or calcium pumping efficiency. ER calcium content was monitored over time using the endoplasmic-localized cameleon calcium FRET sensor (D1ER). […] Briefly, D1ER FRET changes were monitored over time by repeatedly (every 3 minutes) scanning a 384-well plate containing varying concentrations of the 2CS FRET hits. D1ER cells were assessed immediately after compound incubation. […]

[2] = molecular target: two-color SERCA (2CS) biosensor (SERCA2a) (UniProt P16615); test: 2CS FRET biosensor in living HEK293 cells, spectral mode (spectral unmixing plate reader); format: cell-based, human; details: for 2CS FRET hit identification: NCC screen, reproducible and dose-dependent FRET decrease
Experimental: HEK293 cells were maintained in phenol-red-free DMEM from Gibco (Waltham, Mass.) supplemented with 2 mM GlutaMAX (Gibco), 10% fetal bovine serum (FBS) from Atlanta Biologicals (Laweranceville, Ga.), and 1 IU/mL penicillin/streptomycin (Gibco) and grown at 37° C. with 5% CO2. Stable clones expressing the FRET biosensors and corresponding donor- and acceptor-labeled control cell lines were established as described previously [3]. Briefly, cells were transfected with the recombinant DNA following established protocols lipofectaimine 3000 from Invitrogen (Carlsbad, Calif.). 48 hours post transfection the cells were placed under G418 (500 μg/mL) from Sigma (St. Louis, Mo.), antibiotic selection, and plated to allow for the growth of single colonies. Clones were isolated 2-3 weeks after transfection and antibiotic selection. […] The cell lines were expanded in T225 flasks from Corning (Corning, N.Y.), harvested by treatment with Tryple (Invitrogen), washed three times in phosphate buffer solution (PBS) with no magnesium or calcium Thermo Fischer (Waltham, Mass.)) and centrifuged at 300 g, filtered using 70 μm cell strainers (Corning), and diluted to 10^6 cells/mL using an automated countess cell counter from Invitrogen. In studies with cyan and yellow fluorescent protein biosensors, transient transfections were performed. In these studies, cells were harvested and prepared as described above, 48 hours after transfection. Cell viability was assessed using trypan blue. […]
The observed fluorescence emission spectrum F(λ) was fitted by least-squares minimization to a linear combination of component spectra
where D is donor, A is acceptor, C is cell autofluorescence, and W is water Raman, and a, b, c, d are the weighting (scalar) coefficients determined from the fit. The fitted spectrum for each well was determined using least squares minimization with Matlab (Mathworks) to solve for the scalar coefficients.
For an intramolecular FRET sensor with a 1:1 ratio of donor D and acceptor A molecules, FRET efficiency (FRET) was determined from (Eq. 10).

[3] = tested on: cytosolic calcium; details: literature; cited from earlier work
[4] = molecular target: SERCA2a (Homo sapiens, UniProt P16615); details: binding to SERCA2a, literature; cited from earlier work
Chain of SERCA2a (P16615 1-997 isoform P16615-2, species assumed): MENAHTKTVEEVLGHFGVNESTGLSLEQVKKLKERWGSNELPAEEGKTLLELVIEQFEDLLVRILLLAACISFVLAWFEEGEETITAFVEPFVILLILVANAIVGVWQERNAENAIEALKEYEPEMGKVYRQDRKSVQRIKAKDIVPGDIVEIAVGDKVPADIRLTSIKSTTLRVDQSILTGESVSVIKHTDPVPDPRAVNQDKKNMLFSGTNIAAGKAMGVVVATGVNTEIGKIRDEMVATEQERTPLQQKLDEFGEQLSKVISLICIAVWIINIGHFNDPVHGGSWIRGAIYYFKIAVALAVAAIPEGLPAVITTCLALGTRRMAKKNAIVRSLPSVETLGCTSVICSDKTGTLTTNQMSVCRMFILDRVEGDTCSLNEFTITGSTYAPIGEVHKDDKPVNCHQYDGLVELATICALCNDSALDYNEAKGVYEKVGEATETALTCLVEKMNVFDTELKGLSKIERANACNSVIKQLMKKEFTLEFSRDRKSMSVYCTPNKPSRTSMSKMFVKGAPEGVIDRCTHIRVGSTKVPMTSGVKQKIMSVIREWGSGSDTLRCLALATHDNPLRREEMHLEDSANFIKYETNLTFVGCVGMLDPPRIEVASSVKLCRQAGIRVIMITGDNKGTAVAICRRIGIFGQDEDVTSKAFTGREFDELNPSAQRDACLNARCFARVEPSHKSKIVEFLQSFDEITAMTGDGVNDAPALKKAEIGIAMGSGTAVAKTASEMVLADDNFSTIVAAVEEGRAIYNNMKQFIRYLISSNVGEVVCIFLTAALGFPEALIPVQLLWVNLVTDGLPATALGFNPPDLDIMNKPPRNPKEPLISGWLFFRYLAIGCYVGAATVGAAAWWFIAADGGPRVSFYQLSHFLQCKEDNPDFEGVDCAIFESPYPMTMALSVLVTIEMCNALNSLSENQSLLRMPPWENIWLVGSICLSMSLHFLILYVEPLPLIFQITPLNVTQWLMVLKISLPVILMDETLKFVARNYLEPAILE

[5] = molecular target: two-color SERCA (2CS) biosensor (SERCA2a) (UniProt P16615); test: 2CS FRET biosensor in living HEK293 cells, fluorescence lifetime mode; format: cell-based, human
Experimental: HEK293 cells were maintained in phenol-red-free DMEM from Gibco (Waltham, Mass.) supplemented with 2 mM GlutaMAX (Gibco), 10% fetal bovine serum (FBS) from Atlanta Biologicals (Laweranceville, Ga.), and 1 IU/mL penicillin/streptomycin (Gibco) and grown at 37° C. with 5% CO2. Stable clones expressing the FRET biosensors and corresponding donor- and acceptor-labeled control cell lines were established as described previously. Briefly, cells were transfected with the recombinant DNA following established protocols lipofectaimine 3000 from Invitrogen (Carlsbad, Calif.). 48 hours post transfection the cells were placed under G418 (500 μg/mL) from Sigma (St. Louis, Mo.), antibiotic selection, and plated to allow for the growth of single colonies. Clones were isolated 2-3 weeks after transfection and antibiotic selection. The stability of each clone was assessed by flow cytometry and confocal microscopy (data not shown). The cell lines were expanded in T225 flasks from Corning (Corning, N.Y.), harvested by treatment with Tryple (Invitrogen), washed three times in phosphate buffer solution (PBS) with no magnesium or calcium Thermo Fischer (Waltham, Mass.)) and centrifuged at 300 g, filtered using 70 μm cell strainers (Corning), and diluted to 10^6 cells/mL using an automated countess cell counter from Invitrogen. In studies with cyan and yellow fluorescent protein biosensors, transient transfections were performed. In these studies, cells were harvested and prepared as described above, 48 hours after transfection. Cell viability was assessed using trypan blue.
Cells were dispensed using a Multidrop Combi liquid dispenser from Thermo Fischer (Pittsburgh, Pa.) at a density of 10^6/mL. Compounds were diluted in DMSO and dispensed either using a Mosquito liquid handeler from TTP Labtech (Melbourn, UK) or a Mantis liquid dispenser from Formulatrix (Bedford, Mass.). The known SERCA inhibitors thapsigargin (TG, Sigma), 1,4-dihydroxy-2,5-di-tert-butylbenzene (BHQ) from Tocris (Minneapolis, Minn.), and cyclopiazonic acid (CPA, Tocris) were diluted at 50× concentrations and subsequently serially diluted in 96-well mother plates prior to liquid dispensing. […]
In its spectral unmixing plate reader (SUPR) mode, the instrument provides direct high-throughput detection of the complete fluorescence emission spectrum, (emission vs wavelength), with excitation provided by a 473 nm continuous wave laser. Spectra are recorded using a grating-based fiber optic input spectrograph equipped with linear-array CCD detector (Sony ILX511B). The recorded wavelength range in these experiments spanned the entire visible spectrum, but only the 400-700 nm range was used in the data analysis. In lifetime mode, the full nanosecond-resolved fluorescence emission waveform is acquired following excitation with a 473 nm pulsed microchip laser. […]
Fluorescence decay waveforms for lifetime determination, were detected directly as previously described. […] A full fluorescence decay waveform was detected in response to each laser pulse over a 128 ns time window, using a photomultiplier module from Hamamatsu (Cat #H10720-210), and a proprietary transient digitizer from Fluorescence Innovations (Minneapolis, Minn.). A 488 nm long-pass filter from Semrock (Rochester, N.Y.) and 517/20 bandpass emission filter (lifetime mode), were used, ensuring that only emission from the GFP donor was detected. […]

[6] = Water Raman spectrum of compound-only wells (compound aggregation); format: physicochemical; details: dose-dependent
Excerpt: The high sensitivity of spectral mode is shown by the fluorescence signal of the water Raman spectrum.

With `CC(C)(C)c1cc(O)c(C(C)(C)C)cc1O` [BHQ, 1,4-dihydroxy-2,5-di-tert-butylbenzene] as the molecule, how does the “T50 (rate of calcium depletion)” value [1] read?
Its value is 17.4 min.

With `Clc1ccccc1C(c1ccccc1)(c1ccccc1)n1ccnc1` [clotrimazole] as the molecule, how does the “2CS FRET hit identification” value [2] read?
Its value is “hit”.

With `Oc1cc(Cl)ccc1Oc1ccc(Cl)cc1Cl` [triclosan] as the molecule, how does the cytosolic calcium [3] read?
The cytosolic calcium was “increase cytosolic calcium”.

For `C/C=C(/C)C(=O)O[C@H]1C(C)=C2[C@H]([C@@H]1OC(=O)CCCCCCC)[C@@](C)(OC(C)=O)C[C@H](OC(=O)CCC)[C@@]1(O)[C@H]2OC(=O)[C@@]1(C)O` [thapsigargin], which Ki [4] is on record?
Its Ki is 2 nM.

And the “reduction in FRET” value ([2]; 50 nM thapsigargin, spectral mode, average of 32 wells)?
Its value is 8%.

And the “reduction in FRET efficiency” value ([5]; 50 nM thapsigargin, lifetime mode, versus donor-only control)?
Its value is 6%.

What about the “2CS structural equilibrium between open and closed states” value ([5]; global lifetime analysis) of the same molecule?
The value was “shifts this equilibrium substantially toward the open state”.

And the “2CS structural equilibrium between open and closed states” value ([5]; global lifetime analysis, listed as Thapsigargin)?
Its value is “greatly increasing the population of the more open and disordered structural state”.

What about the EC50 ([5]; read-out: EC50 of closed state mole fraction, global lifetime analysis, two-state model) of the same molecule?
The EC50 was 2.2 nM.

And the “increase in the GFP lifetime” value ([5]; saturating concentration, 50 nM)?
Its value is 200 picosecond.

And the EC50 ([1]; Homo sapiens, HEK293, 2 h, ER calcium depletion at 120 min time point, read-out: equilibrium constant of sigmoidal D1ER FRET response)?
Its EC50 is 1.97 nM.

And the “T50 (rate of calcium depletion)” value [1]?
Its value is 9.5 min.

Which “2CS FRET hit identification” value [2] does the source give for `c1ccc(-c2ccc(C(c3ccccc3)n3ccnc3)cc2)cc1` (stereo not shown) [bifonazole] here?
The value was “hits”.

For `Clc1ccc(COC(Cn2ccnc2)c2ccc(Cl)cc2Cl)c(Cl)c1` (stereo not shown) [miconazole], which “2CS FRET hit identification” value [2] is on record?
The value was “hits”.

And the “Raman scattering, compound aggregation” value [6]?
Its value is “decreases inelastic light scattering (Raman band)”.

What about the ER calcium depletion ([1]; over 120 minutes) of the same molecule?
The ER calcium depletion was “largest amount of ER calcium depletion”.
